The text below walks through data of US12509457B2, “Bicyclic nitrogen containing heterocycles as inhibitors of salt-induced kinase SIK2” (priority 2019, dated 2025).

Broadly, the pKi is the negative decadic logarithm of the Ki, by convention in mol/L.

Each structure is given as a SMILES string. pKi: −log10 of the molar value. Read-outs that look alike come from different tables or passages of the source.

Holding throughout (type): biochemical
One assay deals with SIK3 (Homo sapiens, UniProt Q9Y2K2). As to the kind of experiment: SIK3 kinase assay, IMAP fluorescence polarization. The note with it: 50 or 100 μM ATP; average; read-out: SIK3-AVERAGE Ki. For orientation: Fluorescence polarisation rises when a labelled molecule tumbles more slowly, as on binding a larger partner.
For the next assay, the target named is SIK1 (Homo sapiens, UniProt P57059). As to the kind of experiment: SIK1 kinase assay, IMAP fluorescence polarization. The note with it: 50 or 100 μM ATP; average; read-out: SIK1-AVERAGE Ki.
The target in another assay is SIK2 (Homo sapiens, UniProt Q9H0K1). As to the kind of experiment: SIK2 kinase assay, IMAP fluorescence polarization. The note with it: 50 or 100 μM ATP; average; read-out: SIK2-AVERAGE Ki.
In a further assay the target is EPHA2 (Homo sapiens, UniProt P29317). As to the kind of experiment: EPHA2 kinase assay, IMAP fluorescence polarization.
For a further assay, the target named is Src (Homo sapiens, UniProt P12931). As to the kind of experiment: Src kinase assay, IMAP fluorescence polarization. The note with it: 50 or 100 μM ATP; average; read-out: Src-AVERAGE Ki.
For a further assay, the target named is Abl (Homo sapiens, UniProt P00519). As to the kind of experiment: Abl kinase assay, IMAP fluorescence polarization. Particulars: 50 or 100 μM ATP; average; read-out: Abl-AVERAGE Ki.
Sequence of Abl (P00519 whole entry): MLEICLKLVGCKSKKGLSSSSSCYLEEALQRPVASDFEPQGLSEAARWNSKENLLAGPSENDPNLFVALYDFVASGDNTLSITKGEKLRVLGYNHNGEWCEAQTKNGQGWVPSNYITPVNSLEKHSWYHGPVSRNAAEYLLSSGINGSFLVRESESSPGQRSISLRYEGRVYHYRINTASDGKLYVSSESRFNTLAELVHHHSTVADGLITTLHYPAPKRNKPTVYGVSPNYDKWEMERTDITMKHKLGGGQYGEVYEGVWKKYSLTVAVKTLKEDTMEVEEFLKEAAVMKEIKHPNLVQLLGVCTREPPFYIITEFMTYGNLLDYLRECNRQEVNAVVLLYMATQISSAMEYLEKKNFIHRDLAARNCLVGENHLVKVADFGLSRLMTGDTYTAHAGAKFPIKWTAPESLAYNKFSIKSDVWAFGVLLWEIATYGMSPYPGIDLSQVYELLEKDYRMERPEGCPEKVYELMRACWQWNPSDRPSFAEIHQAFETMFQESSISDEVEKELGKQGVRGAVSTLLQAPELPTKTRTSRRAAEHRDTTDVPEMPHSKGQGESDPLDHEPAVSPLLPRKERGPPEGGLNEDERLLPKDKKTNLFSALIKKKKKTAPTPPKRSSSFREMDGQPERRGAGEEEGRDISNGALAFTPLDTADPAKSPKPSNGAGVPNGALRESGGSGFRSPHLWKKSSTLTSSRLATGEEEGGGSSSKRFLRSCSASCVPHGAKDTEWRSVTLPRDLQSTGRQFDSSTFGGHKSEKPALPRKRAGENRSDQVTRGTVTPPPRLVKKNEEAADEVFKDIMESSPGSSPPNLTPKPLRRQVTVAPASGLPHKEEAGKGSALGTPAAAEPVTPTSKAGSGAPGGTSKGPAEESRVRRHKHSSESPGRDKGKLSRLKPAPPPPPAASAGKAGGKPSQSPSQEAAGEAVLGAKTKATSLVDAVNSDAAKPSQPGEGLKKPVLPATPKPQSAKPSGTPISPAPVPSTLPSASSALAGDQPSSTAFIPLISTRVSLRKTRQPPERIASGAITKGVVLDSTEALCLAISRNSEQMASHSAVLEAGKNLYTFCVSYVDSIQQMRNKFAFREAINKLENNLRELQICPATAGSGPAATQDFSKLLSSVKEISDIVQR

Sequence of Src (P12931 whole entry): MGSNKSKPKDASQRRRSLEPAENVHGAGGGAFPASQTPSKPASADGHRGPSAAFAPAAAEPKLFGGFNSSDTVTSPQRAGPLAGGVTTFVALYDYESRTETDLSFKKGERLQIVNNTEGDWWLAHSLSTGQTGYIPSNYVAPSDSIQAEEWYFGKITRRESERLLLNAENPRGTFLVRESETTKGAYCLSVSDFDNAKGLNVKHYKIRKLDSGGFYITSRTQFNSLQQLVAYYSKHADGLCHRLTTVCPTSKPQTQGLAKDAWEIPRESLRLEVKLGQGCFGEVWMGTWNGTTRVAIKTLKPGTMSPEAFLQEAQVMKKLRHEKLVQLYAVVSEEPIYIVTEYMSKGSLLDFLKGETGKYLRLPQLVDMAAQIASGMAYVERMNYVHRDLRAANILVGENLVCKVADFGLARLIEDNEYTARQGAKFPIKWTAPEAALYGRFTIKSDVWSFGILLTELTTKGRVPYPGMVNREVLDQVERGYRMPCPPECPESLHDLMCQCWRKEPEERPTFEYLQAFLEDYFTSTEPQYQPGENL
Sequence of EPHA2 (P29317 24-976): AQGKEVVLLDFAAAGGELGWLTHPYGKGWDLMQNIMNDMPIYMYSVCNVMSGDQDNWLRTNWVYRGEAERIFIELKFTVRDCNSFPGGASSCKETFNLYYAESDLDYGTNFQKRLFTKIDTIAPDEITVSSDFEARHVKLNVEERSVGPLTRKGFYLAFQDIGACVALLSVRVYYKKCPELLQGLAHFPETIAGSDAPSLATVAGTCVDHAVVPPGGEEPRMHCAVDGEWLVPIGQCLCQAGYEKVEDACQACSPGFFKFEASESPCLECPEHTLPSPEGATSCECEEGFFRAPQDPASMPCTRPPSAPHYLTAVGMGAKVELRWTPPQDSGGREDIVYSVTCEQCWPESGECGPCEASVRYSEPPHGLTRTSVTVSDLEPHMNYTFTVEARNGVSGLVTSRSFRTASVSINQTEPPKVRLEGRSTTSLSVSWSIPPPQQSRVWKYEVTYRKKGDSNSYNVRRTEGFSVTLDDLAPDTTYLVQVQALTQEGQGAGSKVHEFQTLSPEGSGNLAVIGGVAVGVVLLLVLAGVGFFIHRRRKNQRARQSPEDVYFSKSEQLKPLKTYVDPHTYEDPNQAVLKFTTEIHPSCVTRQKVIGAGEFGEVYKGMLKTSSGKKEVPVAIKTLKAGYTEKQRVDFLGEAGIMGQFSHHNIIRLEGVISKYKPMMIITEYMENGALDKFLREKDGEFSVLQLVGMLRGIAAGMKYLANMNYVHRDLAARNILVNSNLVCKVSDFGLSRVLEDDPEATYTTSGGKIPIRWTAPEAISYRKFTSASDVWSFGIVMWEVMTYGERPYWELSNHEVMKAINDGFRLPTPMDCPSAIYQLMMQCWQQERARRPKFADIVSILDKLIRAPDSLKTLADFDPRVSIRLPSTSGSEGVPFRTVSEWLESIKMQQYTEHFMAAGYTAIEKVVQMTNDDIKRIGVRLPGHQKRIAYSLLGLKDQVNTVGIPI
Sequence of SIK3 (Q9Y2K2 whole entry): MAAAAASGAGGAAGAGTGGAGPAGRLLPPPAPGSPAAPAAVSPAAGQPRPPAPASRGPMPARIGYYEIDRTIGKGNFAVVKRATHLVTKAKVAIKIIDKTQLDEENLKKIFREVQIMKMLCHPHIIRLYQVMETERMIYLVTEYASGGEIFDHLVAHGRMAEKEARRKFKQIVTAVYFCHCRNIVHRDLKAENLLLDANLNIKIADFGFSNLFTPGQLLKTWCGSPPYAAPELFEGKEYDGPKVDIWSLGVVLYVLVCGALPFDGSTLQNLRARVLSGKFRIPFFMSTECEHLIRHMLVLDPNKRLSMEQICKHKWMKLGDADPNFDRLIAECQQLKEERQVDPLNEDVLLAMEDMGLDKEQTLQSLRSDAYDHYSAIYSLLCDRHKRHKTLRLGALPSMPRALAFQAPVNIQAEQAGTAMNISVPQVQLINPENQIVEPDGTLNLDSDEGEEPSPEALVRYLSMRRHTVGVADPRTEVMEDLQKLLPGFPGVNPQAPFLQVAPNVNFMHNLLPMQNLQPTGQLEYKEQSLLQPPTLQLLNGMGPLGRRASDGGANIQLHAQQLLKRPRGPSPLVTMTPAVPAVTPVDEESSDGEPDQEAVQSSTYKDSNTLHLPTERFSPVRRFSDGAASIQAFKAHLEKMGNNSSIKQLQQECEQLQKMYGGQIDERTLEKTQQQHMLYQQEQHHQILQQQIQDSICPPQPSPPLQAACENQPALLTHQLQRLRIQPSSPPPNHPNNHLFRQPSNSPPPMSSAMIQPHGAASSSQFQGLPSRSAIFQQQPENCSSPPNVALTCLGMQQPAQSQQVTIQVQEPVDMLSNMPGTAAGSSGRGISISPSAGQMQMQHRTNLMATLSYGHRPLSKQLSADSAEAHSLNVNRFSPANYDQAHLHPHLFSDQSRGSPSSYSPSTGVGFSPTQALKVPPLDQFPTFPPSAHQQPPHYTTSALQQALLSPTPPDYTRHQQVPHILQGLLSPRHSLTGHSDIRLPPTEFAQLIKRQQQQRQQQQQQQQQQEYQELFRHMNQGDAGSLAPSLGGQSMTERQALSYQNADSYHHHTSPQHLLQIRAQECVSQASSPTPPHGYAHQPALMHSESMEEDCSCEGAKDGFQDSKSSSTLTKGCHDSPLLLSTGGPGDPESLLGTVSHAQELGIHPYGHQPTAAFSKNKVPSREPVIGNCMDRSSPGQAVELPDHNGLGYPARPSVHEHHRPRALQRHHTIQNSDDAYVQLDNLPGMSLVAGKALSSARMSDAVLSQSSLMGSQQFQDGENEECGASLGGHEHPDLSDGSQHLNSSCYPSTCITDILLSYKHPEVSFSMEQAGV
Sequence of SIK2 (Q9H0K1 whole entry): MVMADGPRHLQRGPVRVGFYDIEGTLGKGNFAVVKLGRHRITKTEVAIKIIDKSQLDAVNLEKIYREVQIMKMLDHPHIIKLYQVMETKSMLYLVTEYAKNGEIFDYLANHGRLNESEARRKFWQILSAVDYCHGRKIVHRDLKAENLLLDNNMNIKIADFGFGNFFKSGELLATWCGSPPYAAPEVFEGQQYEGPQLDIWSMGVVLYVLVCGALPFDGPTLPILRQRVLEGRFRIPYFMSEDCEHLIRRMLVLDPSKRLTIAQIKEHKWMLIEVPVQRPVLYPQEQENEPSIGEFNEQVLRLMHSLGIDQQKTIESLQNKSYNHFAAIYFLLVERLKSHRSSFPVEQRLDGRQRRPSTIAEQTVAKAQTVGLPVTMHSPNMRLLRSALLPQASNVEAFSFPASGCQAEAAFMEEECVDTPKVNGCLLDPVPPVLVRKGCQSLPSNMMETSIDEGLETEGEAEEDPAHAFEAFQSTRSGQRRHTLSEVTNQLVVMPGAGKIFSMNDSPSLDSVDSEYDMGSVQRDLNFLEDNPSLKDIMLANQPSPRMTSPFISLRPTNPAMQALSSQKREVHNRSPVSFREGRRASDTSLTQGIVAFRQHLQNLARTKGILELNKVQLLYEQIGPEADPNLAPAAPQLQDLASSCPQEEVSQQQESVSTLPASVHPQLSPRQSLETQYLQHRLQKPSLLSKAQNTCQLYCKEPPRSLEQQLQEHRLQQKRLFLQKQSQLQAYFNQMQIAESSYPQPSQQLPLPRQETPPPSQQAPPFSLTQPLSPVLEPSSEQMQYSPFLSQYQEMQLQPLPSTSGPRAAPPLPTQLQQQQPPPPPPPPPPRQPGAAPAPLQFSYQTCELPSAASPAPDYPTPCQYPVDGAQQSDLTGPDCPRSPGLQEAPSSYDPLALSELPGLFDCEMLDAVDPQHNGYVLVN

With `Cc1cccc(F)c1N1Cc2cnc(N)cc2N(C2CN(C)C2)C1=O` [Example 5, 7-amino-3-(2-fluoro-6-methyl-phenyl)-1-(1-methylazetidin-3-yl)-4H-pyrido[4,3-d]pyrimidin-2-one], the negative-log Ki (pKi) at SIK3 was 6.90; on SIK1, 7.25; at SIK2, 7.87; on EPHA2 (50 or 100 μM ATP, average), under 6.00; at Src it was under 6.00; at Abl, under 6.00.
Turning to `CNc1cc2c(cn1)CN(c1c(C)cccc1F)C(=O)N2[C@H]1CC[C@@H](N(C)C)CC1` [Example 40, cis-1-[4-(dimethylamino)cyclohexyl]-3-(2-fluoro-6-methyl-phenyl)-7-(methylamino)-4H-pyrido[4,3-d]pyrimidin-2-one], the negative-log Ki (pKi) on SIK3 was 7.73; at SIK1, 8.41; on SIK2, 8.90; on EPHA2 (50 or 100 μM ATP, average), 6.98; on Src it was 6.20; on Abl, 7.20.
With `Cc1cccc(F)c1N1Cc2cnc(N)cc2N(C2CNC2)C1=O` [Example 4, 7-amino-1-(azetidin-3-yl)-3-(2-fluoro-6-methyl-phenyl)-4H-pyrido[4,3-d]pyrimidin-2-one], the pKi at SIK3 was 7.45; at SIK1 it was 8.10; at SIK2 it was 8.39; on EPHA2, 6.65; at Src, 6.26; at Abl it was 6.73.
Consider `Cc1cccc(F)c1N1Cc2cnc(N)cc2N([C@H]2CCCCNC2)C1=O` [Example 53, 7-amino-1-[(3S)-azepan-3-yl]-3-(2-fluoro-6-methyl-phenyl)-4H-pyrido[4,3-d]pyrimidin-2-one], for which the pKi at SIK3 was 7.17; at SIK1, 8.02; on SIK2, 8.65; on EPHA2 (50 or 100 μM ATP, average), 6.09; on Src, 5.54; at Abl, 6.29.
For `Cc1cccc(F)c1N1Cc2cnc(N)nc2N([C@H]2CCCNCC2)C1=O` [Example 69, 7-amino-1-[(4S)-azepan-4-yl]-3-(2-fluoro-6-methyl-phenyl)-4H-pyrimido[4,5-d]pyrimidin-2-one], the pKi is 9.03 at SIK3; 9.39 at SIK1; 10.00 on SIK2; 7.83 on EPHA2 (50 or 100 μM ATP, average); 7.35 on Src; 7.71 at Abl.
As for `Cc1cccc(F)c1N1Cc2cnc(N)nc2N([C@@H]2CCN(C)C2)C1=O` [Example 31, 7-amino-3-(2-fluoro-6-methyl-phenyl)-1-[(3R)-1-methylpyrrolidin-3-yl]-4H-pyrimido[4,5-d]pyrimidin-2-one], the pKi at SIK3 is 7.20; on SIK1, 8.08; at SIK2 it was 8.32; at EPHA2, 6.64; on Src it was under 5.00; at Abl, 6.28.
Consider `Cc1cccc(Cl)c1N1Cc2cnc(N)cc2N(C2CNC2)C1=O` [Example 8, 7-amino-1-(azetidin-3-yl)-3-(2-chloro-6-methyl-phenyl)-4H-pyrido[4,3-d]pyrimidin-2-one], for which the pKi on SIK3 is 7.34; on SIK1 it was 8.11; on SIK2 it was 8.35; at EPHA2, 6.83; on Src, 6.80; at Abl it was under 6.00.
In the case of `Cc1cccc(F)c1N1Cc2cnc(N)cc2N([C@H]2CCCN(C)C2)C1=O` [Example 82, 7-amino-3-(2-fluoro-6-methyl-phenyl)-1-[(3S)-1-methyl-3-piperidyl]-4H-pyrido[4,3-d]pyrimidin-2-one], the pKi is 8.23 at SIK3; 9.00 on SIK1; 9.30 on SIK2; 7.26 at EPHA2 (50 or 100 μM ATP, average); 7.08 at Src; under 6.00 on Abl.
Turning to `Cc1cccc(F)c1N1Cc2cnc(N)nc2N([C@H]2CCCN(C)CC2)C1=O` [Example 35, 7-amino-3-(2-fluoro-6-methyl-phenyl)-1-[(4S)-1-methylazepan-4-yl]-4H-pyrimido[4,5-d]pyrimidin-2-one], the pKi on SIK3 was 8.67; at SIK1, 8.93; on SIK2 it was 9.42; at EPHA2, 7.41; at Src, 6.54; on Abl, 6.98.
Consider `Cc1cccc(F)c1N1Cc2cnc(N)cc2N(CC2CCNCC2)C1=O` [Example 2, 7-amino-3-(2-fluoro-6-methyl-phenyl)-1-(4-piperidylmethyl)-4H-pyrido[4,3-d]pyrimidin-2-one], for which the pKi on SIK3 is 9.26; on SIK1, 9.03; on SIK2 it was 9.79; at EPHA2 (50 or 100 μM ATP, average), 7.41; at Src, 7.64; at Abl, 8.63.
With `Cc1cccc(F)c1N1Cc2cnc(N)nc2N([C@H]2CCN(C)C2)C1=O` [Example 30, 7-amino-3-(2-fluoro-6-methyl-phenyl)-1-[(3S)-1-methylpyrrolidin-3-yl]-4H-pyrimido[4,5-d]pyrimidin-2-one], the pKi was 7.19 at SIK3; 7.92 at SIK1; 8.42 on SIK2; 7.11 at EPHA2; 5.73 on Src; 6.35 at Abl.
In the case of `Cc1cccc(F)c1N1Cc2cnc(N)nc2N([C@@H]2CCCCNC2)C1=O` [Example 72, 7-amino-1-[(3R)-azepan-3-yl]-3-(2-fluoro-6-methyl-phenyl)-4H-pyrimido[4,5-d]pyrimidin-2-one], the pKi was 7.68 on SIK3; 8.71 at SIK1; 8.94 on SIK2; 7.63 at EPHA2 (50 or 100 μM ATP, average); 7.30 at Src; 7.70 at Abl.
As for `Cc1cccc(F)c1N1Cc2cnc(N)nc2N(C2CCCC(N)C2)C1=O` (stereo not drawn) [Example 75, 7-amino-1-(3-aminocyclohexyl)-3-(2-fluoro-6-methyl-phenyl)-4H-pyrimido[4,5-d]pyrimidin-2-one], the pKi at SIK3 was 8.52; at SIK1, 9.17; on SIK2, 9.68; at EPHA2 (50 or 100 μM ATP, average) it was 8.03; at Src, 7.93; on Abl, 7.86.
With `Cc1cccc(F)c1N1Cc2cnc(N)nc2N([C@@H]2CCCNC2)C1=O` [Example 73, 7-amino-3-(2-fluoro-6-methyl-phenyl)-1-[(3R)-3-piperidyl]-4H-pyrimido[4,5-d]pyrimidin-2-one], the negative-log Ki (pKi) at SIK3 was 8.00; on SIK1 it was 8.89; at SIK2, 9.03; on EPHA2 (50 or 100 μM ATP, average), 7.25; at Src it was 7.11; on Abl, 7.43.
Regarding `Cc1cccc(F)c1N1Cc2cnc(N)nc2N([C@H]2CC[C@@H](N)CC2)C1=O` [Example 74, 7-amino-1-(4-aminocyclohexyl)-3-(2-fluoro-6-methyl-phenyl)-4H-pyrimido[4,5-d]pyrimidin-2-one], the pKi is 8.70 on SIK3; 8.97 on SIK1; 9.45 at SIK2; 7.79 at EPHA2 (50 or 100 μM ATP, average); 7.31 at Src; 7.65 on Abl.
On to `Cc1cccc(F)c1N1Cc2cnc(N)nc2N(C2CN(C)C2)C1=O` [Example 21, 7-amino-3-(2-fluoro-6-methyl-phenyl)-1-(1-methylazetidin-3-yl)-4H-pyrimido[4,5-d]pyrimidin-2-one], for which the pKi was 7.32 at SIK3; 7.32 on SIK1; 7.86 at SIK2; 6.41 on EPHA2 (50 or 100 μM ATP, average); 5.59 on Src; under 5.00 at Abl.
